{"source": "patent US20240423950A1", "about": "“5-MAPB OR 6-APB FOR USE IN DRUG-ASSISTED PSYCHOTHERAPY” (CLEARMIND MEDICINE INC., priority 2021, published 2024)", "key": {"human subjects": {"tested_on": "human subjects", "assay": "Drug-assisted psychotherapy in individuals for whom MDMA therapy is ineffective", "type": "in vivo", "excerpt": "Inter alia, 5-MAPB or 6-APB-assisted psychotherapy is effective in post-traumatic stress disorder (PTSD) therapy, couple's therapy, and therapy for anxiety disorders."}, "[1]": {"conditions": "animal models, after oral ingestion; cited from earlier work"}}, "data": [{"smiles": "CNC(C)Cc1ccc2occc2c1", "note": "(stereo not shown) [5-MAPB, 1-(Benzofuran-5-yl)-N-methylpropan-2-amine]", "values": [{"measurement": "therapeutic efficacy in the psychotherapeutic context", "setting": "human subjects", "value": "significant enhancement of therapeutic efficacy"}, {"measurement": "apparent plasma half-life", "setting": "[1]", "value": "approximately 1 hour"}]}, {"smiles": "CC(N)Cc1ccc2ccoc2c1", "note": "(stereo not shown) [6-APB, 1-Benzofuran-6-yl propan-2-amine]", "values": [{"measurement": "therapeutic efficacy in the psychotherapeutic context", "setting": "human subjects", "value": "significant enhancement of therapeutic efficacy"}, {"measurement": "apparent plasma half-life", "setting": "[1]", "value": "approximately 1 hour"}]}]}
